Measurements as given in paper PMC8359193, “Summary of reference chemicals evaluated by the fish short‐term reproduction assay, OECD TG229, using Japanese Medaka, Oryzias latipes” (Journal of Applied Toxicology, 2021).
“Also recorded” adds a separate entry of the source.

Tests used:
fathead minnow = system: fathead minnow; set-up: method as in US EPA, 2007; details: three participating laboratories; ref US EPA, 2007; cited from earlier work
[1] = system: Japanese medaka (Oryzias latipes); assay: Fish short-term reproduction assay (FSTRA, OECD TG229), 21-day flow-through exposure; details: for Fertility rate (%) / Mortality (%) Female / Mortality (%) Male / Number of fertilized eggs / Number of total eggs / SSC Female / SSC Male / VTG (ng/mg of liver) Female / VTG (ng/mg of liver) Male: 21 days; for GSI Female / GSI Male / HSI Female / HSI Male / Length Female / Length Male / Weight Female / Weight Male: at completion of exposure
Procedure, shortened: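 Japanese medaka (NIES-R strain, 16 ± 2 weeks old) were exposed in flow-through tanks for 3 weeks, three males and three females per tank, four replicate tanks per group, with a dilution water control. Concentrations were spaced by a factor of 2–5. Eggs were collected daily and counted as fertilized or unfertilized.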

Japanese medaka = details: MMT, ref Flynn et al. (2017), cited from earlier work
medaka ARβ (mARβ) = medaka ARβ (mARβ) (Oryzias latipes, UniProt D1MV73); assay: Medaka ARβ reporter gene assay (RGA), antagonist assay with 50 nM 11KT, HepG2 cells; type: cell-based, Japanese medaka (Oryzias latipes); details: 50 nM 11KT-induced mARβ activity
Chain of medaka ARβ (mARβ) (D1MV73 entry or part of it): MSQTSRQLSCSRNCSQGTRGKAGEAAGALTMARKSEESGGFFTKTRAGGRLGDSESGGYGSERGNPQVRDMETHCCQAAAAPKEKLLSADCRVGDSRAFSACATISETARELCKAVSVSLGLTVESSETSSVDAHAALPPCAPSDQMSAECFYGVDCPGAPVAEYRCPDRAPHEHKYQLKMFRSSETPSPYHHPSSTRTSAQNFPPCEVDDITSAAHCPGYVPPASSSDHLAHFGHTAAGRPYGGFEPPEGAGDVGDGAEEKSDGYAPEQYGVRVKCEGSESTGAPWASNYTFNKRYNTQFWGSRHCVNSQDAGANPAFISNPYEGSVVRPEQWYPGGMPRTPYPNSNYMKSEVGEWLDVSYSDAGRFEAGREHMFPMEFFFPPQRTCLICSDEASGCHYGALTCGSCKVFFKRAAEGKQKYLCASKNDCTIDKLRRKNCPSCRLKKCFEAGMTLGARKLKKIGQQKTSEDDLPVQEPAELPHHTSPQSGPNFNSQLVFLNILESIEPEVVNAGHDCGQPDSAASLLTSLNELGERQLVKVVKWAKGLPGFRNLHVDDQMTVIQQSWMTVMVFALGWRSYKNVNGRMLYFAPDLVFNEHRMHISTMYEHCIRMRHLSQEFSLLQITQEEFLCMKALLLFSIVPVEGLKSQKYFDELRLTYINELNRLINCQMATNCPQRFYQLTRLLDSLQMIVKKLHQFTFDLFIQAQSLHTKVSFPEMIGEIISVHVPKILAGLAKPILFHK
Protocol: To support interpretation of the biological effects observed in the FSTRA studies, in vitro RGAs using medaka Esr1 (mEsr1) and medaka ARβ (mARβ) were performed for the 16 test chemicals. In the present study, Esr1 and ARβ, which are ancestral subtypes among Esrs and ARs in Japanese medaka, were selected based on the phylogenetical analyses of Esr and AR with each receptor RGAs (Ogino et al., [2016], [2018]; Tohyama et al., [2015]).
The mARβ RGA in which the agonist and the antagonist assays were performed as same as the mEsr1 RGA was carried out according to the methods previously reported by Lange et al. ([2015]). For the assays, human liver cancer cell line, HepG2, was used as the host cells, and mARβ/pcDNA3.1, MMTV‐Luc, and pRL‐TK‐Rlu were used as mARβ expression vector, reporter vector, and internal control vector, respectively. Other materials and methods, for example, operating procedure, reagents, and incubation conditions, were almost the same as the mEsr1 RGA previously described beside that 11KT (Sigma‐Aldrich, purity 99.0%), a main AR ligand in fish, was competitively spiked at 50 nM into the test medium with test chemicals in antagonist assay. In the agonist and the antagonist assays, 11KT and 2‐hydroxyflutamide (2HFLT; Sigma‐Aldrich, purity 98.5%) were used as positive controls, respectively.
Effect concentrations, that is, EC50 (a half maximal effective concentration) in the agonist assay and IC50 (a half maximal inhibitory concentration) in the antagonist assay, were estimated by nonlinear curve fitting (e.g., three parameters logistic regression curve) using GraphPad Prism (GraphPad Software Inc., La Jolla, CA, USA).

SMILES: C=CC1(C)OC(=O)N(c2cc(Cl)cc(Cl)c2)C1=O (centres unmarked) [VCZ, Vinclozolin]
- nominal concentration with significant decrease in nuptial tubercle number in males (fathead minnow): 900 µg/L
- effect on fertility rate, in words ([1]; 21-day exposure): significant decrease; also recorded: significant reduction
- Fertility rate (%) ([1]; measured conc. 14.5 μg/L): 95%
- Mortality (%) Female ([1]; measured conc. 14.5 μg/L): 0%
- Mortality (%) Male ([1]; measured conc. 14.5 μg/L): 0%
- Number of fertilized eggs ([1]; measured conc. 14.5 μg/L): 22
- Number of total eggs ([1]; measured conc. 14.5 μg/L): 24 ± 2.6 /female/day
- SSC Female ([1]; measured conc. 14.5 μg/L): 0 ± 0
- SSC Male ([1]; measured conc. 14.5 μg/L): 108 ± 18
- VTG (ng/mg of liver) Female ([1]; measured conc. 14.5 μg/L): 886 ± 300 ng/mg of liver
- VTG (ng/mg of liver) Male ([1]; measured conc. 14.5 μg/L): 7.5 ± 7.2 ng/mg of liver
- GSI Female ([1]; measured conc. 14.5 μg/L): 11.8%
- GSI Male ([1]; measured conc. 14.5 μg/L): 1.09%
- HSI Female ([1]; measured conc. 14.5 μg/L): 4.6%
- HSI Male ([1]; measured conc. 14.5 μg/L): 1.7%
- Length Female ([1]; measured conc. 14.5 μg/L): 35.2 mm
- Length Male ([1]; measured conc. 14.5 μg/L): 34.8 mm
- Weight Female ([1]; measured conc. 14.5 μg/L): 447 mg
- Weight Male ([1]; measured conc. 14.5 μg/L): 455 mg
- Fertility rate (%) ([1]; measured conc. 43.9 μg/L): 94%
- Mortality (%) Female ([1]; measured conc. 43.9 μg/L): 0%
- Mortality (%) Male ([1]; measured conc. 43.9 μg/L): 0%
- Number of fertilized eggs ([1]; measured conc. 43.9 μg/L): 22
- Number of total eggs ([1]; measured conc. 43.9 μg/L): 23 ± 5.3 /female/day
- SSC Female ([1]; measured conc. 43.9 μg/L): 0 ± 0
- SSC Male ([1]; measured conc. 43.9 μg/L): 95 ± 16
- VTG (ng/mg of liver) Female ([1]; measured conc. 43.9 μg/L): 816 ± 278 ng/mg of liver
- VTG (ng/mg of liver) Male ([1]; measured conc. 43.9 μg/L): 10 ± 12 ng/mg of liver
- GSI Female ([1]; measured conc. 43.9 μg/L): 10.7%
- GSI Male ([1]; measured conc. 43.9 μg/L): 1.24%
- HSI Female ([1]; measured conc. 43.9 μg/L): 4.7%
- HSI Male ([1]; measured conc. 43.9 μg/L): 1.7%
- Length Female ([1]; measured conc. 43.9 μg/L): 35.0 mm
- Length Male ([1]; measured conc. 43.9 μg/L): 34.4 mm
- Weight Female ([1]; measured conc. 43.9 μg/L): 445 mg
- Weight Male ([1]; measured conc. 43.9 μg/L): 427 mg
- Fertility rate (%) ([1]; measured conc. 137 μg/L): 90%
- Mortality (%) Female ([1]; measured conc. 137 μg/L): 0%
- Mortality (%) Male ([1]; measured conc. 137 μg/L): 0%
- Number of fertilized eggs ([1]; measured conc. 137 μg/L): 19
- Number of total eggs ([1]; measured conc. 137 μg/L): 21 ± 4.3 /female/day
- SSC Female ([1]; measured conc. 137 μg/L): 0 ± 0
- SSC Male ([1]; measured conc. 137 μg/L): 108 ± 16
- VTG (ng/mg of liver) Female ([1]; measured conc. 137 μg/L): 651 ± 217 ng/mg of liver
- VTG (ng/mg of liver) Male ([1]; measured conc. 137 μg/L): 3.6 ± 2.3 ng/mg of liver
- GSI Female ([1]; measured conc. 137 μg/L): 10.6%
- GSI Male ([1]; measured conc. 137 μg/L): 1.40%
- HSI Female ([1]; measured conc. 137 μg/L): 4.5%
- HSI Male ([1]; measured conc. 137 μg/L): 1.5%
- Length Female ([1]; measured conc. 137 μg/L): 34.8 mm
- Length Male ([1]; measured conc. 137 μg/L): 34.4 mm
- Weight Female ([1]; measured conc. 137 μg/L): 437 mg
- Weight Male ([1]; measured conc. 137 μg/L): 425 mg
- Fertility rate (%) ([1]; measured conc. 453 μg/L): 84%
- Mortality (%) Female ([1]; measured conc. 453 μg/L): 0%
- Mortality (%) Male ([1]; measured conc. 453 μg/L): 0%
- Number of fertilized eggs ([1]; measured conc. 453 μg/L): 17
- Number of total eggs ([1]; measured conc. 453 μg/L): 20 ± 5.9 /female/day
- SSC Female ([1]; measured conc. 453 μg/L): 0 ± 0
- SSC Male ([1]; measured conc. 453 μg/L): 102 ± 17
- VTG (ng/mg of liver) Female ([1]; measured conc. 453 μg/L): 111 ± 92 ng/mg of liver
- VTG (ng/mg of liver) Male ([1]; measured conc. 453 μg/L): 3.9 ± 8.6 ng/mg of liver
- GSI Female ([1]; measured conc. 453 μg/L): 12.0%
- GSI Male ([1]; measured conc. 453 μg/L): 1.46%
- HSI Female ([1]; measured conc. 453 μg/L): 4.7%
- HSI Male ([1]; measured conc. 453 μg/L): 1.8%
- Length Female ([1]; measured conc. 453 μg/L): 34.8 mm
- Length Male ([1]; measured conc. 453 μg/L): 34.9 mm
- Weight Female ([1]; measured conc. 453 μg/L): 455 mg
- Weight Male ([1]; measured conc. 453 μg/L): 455 mg
- effect on fecundity (number of total eggs), in words ([1]; within the test concentrations, 21-day exposure): No effect
- LOEC on SSC in females (Japanese medaka): 33 µg/L
- LOEC on reproduction (fecundity and/or fertility) (Japanese medaka; long-term exposure): 253 µg/L
- mARβ antagonist activity (in words) (medaka ARβ (mARβ)): inhibited
